Consider four compounds from US11166949B2, “NURR1 activation in the treatment of metabolic disorders and as an exercise mimetic” (The Board of Regents of the University of Texas System, priority 2016, dated 2021).

Entries after “also recorded” stand apart in the source; their conditions may differ.

In data set [1] the test system is WT mice on normal chow and HFD. The data set is described as follows: Nurr1 agonist treatment of WT mice on normal chow and HFD: weight gain, food intake, body composition, adipose histology. The format is in vivo. The note with it: for weight gain: WT mice on normal chow. As to the method: Animals. Animals were housed in a pathogen free barrier facility with a 12 hour light/dark cycle and maintained on standard chow (2916 Teklad Global). The Nurr1 transcript was amplified from Invitrogen library with Nurr1-specific primers. Nurr1 was cloned into a plasmid containing the human skeletal muscle actin promoter and human GH (hGH) poly(A) signal. Nurr1 transgenic mice (referred as Nurr1-mTg) were backcrossed with C57/BL6J mice for more than four generations. C57BL/6J, ob/ob and db/db mice were obtained from Jackson Laboratories. Male mice were used in all experiments. For HFD (60% fat calories; D12492, Research Diet), mice were fed from the age of 5 weeks to the indicated times. Tissues were taken in the fed state except when otherwise mentioned. Drug treatments. […] Isoxazolo-pyridinone 7e (IP7e) was purchased from Millipore and dissolved in Tween 80 in a 10× stock solution. To obtain the final concentration (1×; 10 mg/kg) IP7e was dissolved in saline solution (0.9% NaCl). IP7e treatment by gavage was performed once a day. Control animals received the Tween 80 dissolved saline solution (0.9% NaCl, vehicle). Histology. WAT, BAT and liver were isolated and fixed in 4% paraformaldehyde (PFA) and processed for H&E staining. For oil red O staining, liver tissues were fixed in 4% PFA overnight, incubated in 12% sucrose for 12 hours then in 18% sucrose overnight before being cryoembedded and sectioned by the UT Southwestern Histology Core Facility. For skeletal muscle fiber analysis, tissues were frozen in liquid-nitrogen precooled isopentane, and 8 μm sections were used for H&E and fiber type staining. Metabolic chambers and whole-body composition analysis. Metabolic phenotyping of WT and Nurr1-mTg mice on HFD was performed using TSE metabolic chamber analysis by the Mouse Metabolic Phenotyping Core Facility at University of Texas Southwestern Medical Center. Thirteen week old mice on HFD were placed in TSE metabolic chambers for an initial 5 days acclimation period, followed by a 4.5 days experimental period with data collection. Whole-body composition parameters were measured by magnetic resonance imaging (MRI) using a Bruker Minispec mq10 system.

Data set [2] has as its system mice on HFD. As to the kind of experiment: Glucose tolerance test and insulin tolerance test. It counts as in vivo. As to the method:
Glucose uptake and insulin tolerance. Glucose tolerance test and insulin tolerance test were performed as previously described. For glucose tolerance test, mice were fasted for 6 hr and injected intraperitoneally with a glucose solution (0.15 g/ml, 158968 from Sigma-Aldrich, St. Louis, Mo.) at 1.5 g/kg body weight. Blood glucose concentrations were measured before and 15, 30, 60 and 90 min after glucose injection. For insulin tolerance test, mice […] for 6 hours were injected intraperitoneally with insulin (Human insulin 19278 from Sigma-Aldrich, St. Louis, Mo.) at 1.0 U/kg body weight. Blood glucose concentrations were measured before and 15, 30, 60 and 90 min after insulin injection.

For data set [3], the system named is WT mice on HFD. The data set is described as follows: Liver TRIG accumulation / hepatic steatosis in response to HFD. The format is in vivo. Conditions: for hepatic steatosis: WT mice on HFD. As for the experimental part: (§1) Histology. WAT, BAT and liver were isolated and fixed in 4% paraformaldehyde (PFA) and processed for H&E staining. For oil red O staining, liver tissues were fixed in 4% PFA overnight, incubated in 12% sucrose for 12 hours then in 18% sucrose overnight before being cryoembedded and sectioned by the UT Southwestern Histology Core Facility. For skeletal muscle fiber analysis, tissues were frozen in liquid-nitrogen precooled isopentane, and 8 μm sections were used for H&E and fiber type staining. Plasma and tissue chemistry. Blood was collected using a 1 ml syringe coated in 0.5 M K2EDTA and serum collected by centrifugation for 20 min at 1000×g. Insulin and leptin levels were measured by ELISA. Serum triglycerides levels were measured using the Ortho Vitros 250 chemistry system. To measure triglyceride in the liver and skeletal muscle, tissue specimens were frozen immediately after isolation and pulverized in liquid nitrogen with a cell crusher. Serum and tissue triglyceride levels were measured by Mouse Metabolic Phenotyping Core Facility at University of Texas Southwestern Medical Center.

Data set [4] addresses Nurr1 (Homo sapiens, UniProt P43354). Conditions: cited from earlier work.
Data set [5] relates to dopaminergic neurons in the substantia nigra pars compacta. Conditions: MPTPp-treated mice, cited from earlier work.
Data set [6] concerns BV-2 microglia. Conditions: cited from earlier work.
Data set [7] deals with NF-κB. Conditions: NF-κB-GFP reporter cells; cited from earlier work.
Data set [8] is described as follows: Serum insulin and triglyceride levels. Conditions: WT-HFD-AQ vs WT-HFD mice, after 10 weeks on HFD, postprandial. It counts as in vivo. As for the experimental part: Plasma and tissue chemistry. Blood was collected using a 1 ml syringe coated in 0.5 M K2EDTA and serum collected by centrifugation for 20 min at 1000×g. Insulin and leptin levels were measured by ELISA. Serum triglycerides levels were measured using the Ortho Vitros 250 chemistry system. To measure triglyceride in the liver and skeletal muscle, tissue specimens were frozen immediately after isolation and pulverized in liquid nitrogen with a cell crusher. Serum and tissue triglyceride levels were measured by Mouse Metabolic Phenotyping Core Facility at University of Texas Southwestern Medical Center.

Data set [9] in a line: Metabolic cages (energy expenditure). The format is in vivo. The note with it: WT-HFD-AQ compared to WT mice, normalized to lean mass.
In data set [10] the test system is ob/ob mice. As to the kind of experiment: AQ treatment of leptin deficient (ob/ob) mice: body weight, food intake. The format is in vivo. As to the method: Animals. Animals were housed in a pathogen free barrier facility with a 12 hour light/dark cycle and maintained on standard chow (2916 Teklad Global). The Nurr1 transcript was amplified from Invitrogen library with Nurr1-specific primers. Nurr1 was cloned into a plasmid containing the human skeletal muscle actin promoter and human GH (hGH) poly(A) signal. Nurr1 transgenic mice (referred as Nurr1-mTg) were backcrossed with C57/BL6J mice for more than four generations. C57BL/6J, ob/ob and db/db mice were obtained from Jackson Laboratories. Male mice were used in all experiments. For HFD (60% fat calories; D12492, Research Diet), mice were fed from the age of 5 weeks to the indicated times. Tissues were taken in the fed state except when otherwise mentioned. Drug treatments. […] Isoxazolo-pyridinone 7e (IP7e) was purchased from Millipore and dissolved in Tween 80 in a 10× stock solution. To obtain the final concentration (1×; 10 mg/kg) IP7e was dissolved in saline solution (0.9% NaCl). IP7e treatment by gavage was performed once a day. Control animals received the Tween 80 dissolved saline solution (0.9% NaCl, vehicle).

In data set [11] the test system is ob/ob mice. The data set is described as follows: Liver TRIG accumulation in ob/ob mice. It counts as in vivo. As to the method: as §1
For data set [12] the following is noted: mouse, in vivo.
The test system of data set [13] is chloroquine-resistant Plasmodium falciparum. The note with it: chloroquine-resistant Plasmodium falciparum malaria infections; cited from earlier work.
The conditions of data set [14]: cited from earlier work.
Setting [15] is: WT-HFD-AQ compared to WT-HFD mice.
[16] abbreviates: ob/ob mice on normal chow, AQ in drinking water, 4 weeks.

Chain of Nurr1 (P43354 whole entry): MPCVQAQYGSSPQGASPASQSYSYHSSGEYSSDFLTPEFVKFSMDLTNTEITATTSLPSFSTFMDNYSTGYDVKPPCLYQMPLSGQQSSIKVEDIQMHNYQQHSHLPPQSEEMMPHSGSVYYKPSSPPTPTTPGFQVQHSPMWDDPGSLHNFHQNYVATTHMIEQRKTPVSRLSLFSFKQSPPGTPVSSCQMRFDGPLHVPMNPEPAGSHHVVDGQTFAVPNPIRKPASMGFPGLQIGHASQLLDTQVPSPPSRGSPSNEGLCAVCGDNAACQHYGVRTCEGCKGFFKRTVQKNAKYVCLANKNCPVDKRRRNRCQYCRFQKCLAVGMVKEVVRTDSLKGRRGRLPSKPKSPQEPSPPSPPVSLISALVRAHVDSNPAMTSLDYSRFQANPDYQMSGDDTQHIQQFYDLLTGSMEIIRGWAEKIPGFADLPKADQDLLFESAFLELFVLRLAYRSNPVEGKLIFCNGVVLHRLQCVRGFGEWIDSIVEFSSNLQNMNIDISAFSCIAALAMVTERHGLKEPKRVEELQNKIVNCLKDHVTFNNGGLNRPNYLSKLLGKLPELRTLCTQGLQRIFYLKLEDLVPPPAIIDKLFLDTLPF

In the case of `COCCOCc1ccc(-c2cc3onc(-c4ccccc4)c3c(=O)n2C)cc1` [IP7e, Isoxazolo-pyridinone 7e], in data set [1] (WT mice on HFD, IP7e 10 mg/kg oral gavage once a day, 5 weeks), the “obesity on HFD” value is “prevented obesity; also recorded: confers resistance to obesity”. Moreover, the “food consumption / food intake” value in data set [1] (WT mice on HFD, IP7e vs control mice on HFD) is reported as “no difference”; in [1] (WT mice on HFD, IP7e vs control mice on HFD, listed as IP7), “does not affect”. Moreover, the weight gain result in data set [1] (IP7e 10 mg/kg oral gavage once a day, 5 weeks) is reported as “no impact”. Moreover, the “glucose handling (glucose tolerance)” value in data set [2] (IP7e) is given as “improvement”. Also, the hepatic steatosis result in [3] (IP7e) is reported as “resistant to the hepatic steatosis; also recorded: prevents hepatic steatosis”. Further, the “decrease in hepatic TRIG levels” value in data set [3] (WT-HFD-IP7e mice) was determined as 48%. In data set [4], the Nurr1-dependent transcriptional activity entry is given as “potent activator”.
`Clc1ccc(C(c2c[nH]c3ccccc23)c2c[nH]c3ccccc23)cc1` [C-DIM12, 1,1-bis(3′-indolyl)-1-(p-chlorophenyl) methane]: in [5] (daily oral gavage), the neuroprotective activity result was “greatest neuroprotective activity”. In addition, the “suppressing activation of microglia and astrocytes” value in data set [5] was “most potent compound”. Further, in [6], the “LPS-induced expression of NF-κB-regulated genes (NOS2, IL-6, CCL2)” value is on record as “inhibited”. The NF-κB activation entry in [7] is “decreased”.
With `CCN(CC)Cc1cc(Nc2ccnc3cc(Cl)ccc23)ccc1O` [AQ, amodiaquine], the “obesity on HFD” value in data set [1] (WT mice on HFD, AQ in drinking water ad libitum, 10 weeks) is “completely prevented obesity; also recorded: confers resistance to obesity”. Besides, the body weights entry in [1] (WT mice on HFD, AQ in drinking water, 10 weeks) was “comparable to mice on normal chow”. In addition, the “food consumption / food intake” value in data set [1] (WT mice on HFD, AQ vs control mice on HFD) is on record as “no difference; also recorded: does not affect”. Besides, the weight gain result in data set [1] (AQ in drinking water ad libitum, 10 weeks) was “no effect”. Moreover, in data set [1] (setting [15]), the “adipocyte size in white adipose tissue” value is recorded as “decreases”, the fat mass result is “significant decrease; also recorded: decreases” and the lean mass composition entry is “increase”. Moreover, in [2] (AQ), the glucose tolerance entry is given as “dramatic improvement” and the insulin tolerance result was “dramatic improvement”. Besides, in [8], the serum insulin levels result was “significantly lower” and the serum triglyceride levels result is “significantly lower”. Also, in data set [9], the CO2 production result is recorded as “significant increase” and the O2 consumption result was “significant increase”. The hepatic steatosis result in [3] (AQ) is “resistant to the hepatic steatosis; also recorded: prevents hepatic steatosis”. Further, in [3] (WT-HFD-AQ mice vs WT on HFD), the “decrease in hepatic TRIG levels” value is 50%. For the same compound, in [10] (setting [16]), the body weight entry is recorded as “lose weight” and the weight gain result is “resistant to weight gain”. The “food intake (chow consumed)” value in data set [10] (ob/ob mice, AQ 4 weeks) is recorded as “comparable quantities; also recorded: does not affect”. The “decrease in Tg levels (liver)” value in data set [11] (ob/ob mice treated with AQ compared to non treated mice, 4 weeks) was 66%. Moreover, in data set [11] (ob/ob mice treated with AQ, histological and biochemical analysis), the “liver TRIG accumulation / hepatic steatosis” value was “significant decrease; also recorded: recovers hepatic steatosis ob/ob mice to normal levels”. In addition, in data set [12], the toxic effects result is reported as “no toxic effects”. For the same compound, in data set [4] (among three compounds sharing a 4-amino-7-chloroquinoline scaffold), the Nurr1 activation levels result is reported as “highest activation levels”. The “efficacy compared with chloroquine” value in data set [13] is “more effective than chloroquine”.
For `CCN(CCO)CCCC(C)Nc1ccnc2cc(Cl)ccc12` (stereo not shown) [hydroxy-chloroquine], the glucose level entry in data set [14] (high doses, individuals with type 2 diabetes without autoimmune conditions, two clinical trials) is reported as “lowers glucose level”. Moreover, the “risk of developing diabetes” value in data set [14] (patients with autoimmune inflammatory arthritis, three clinical observational studies) is reported as “lower risk”.
